According to ChEMBL document CHEMBL1177877, “Synthesis and in vitro evaluation of substituted pyrimido[5,4-d]pyrimidines as a novel class of anti-Mycobacterium tuberculosis agents” (Eur J Med Chem, 2010):
Values after ≈ are worked out from the molar mass of the structure shown.

tested on: Mycobacterium tuberculosis; assay: Antimycobacterial activity against Mycobacterium tuberculosis H37Rv; type: functional, organism-based; details: not given

Row | Compound | IC50 [µg/mL] | IC90 [µM]
1 | CC(=O)Nn1cnc2c(Nc3ccccc3)ncnc2c1=N | 44.9 (≈ 152 µM) | > 314
2 | COc1ccc(Nc2ncnc3c(=N)n(NC(C)=O)cnc23)cc1 | 46.5 (≈ 143 µM) | > 298
3 | COc1ccc(Nc2ncnc3c(=N)n(NC(=O)c4ccco4)cnc23)cc1 | 3.56 (≈ 9.43 µM) | 261
4 | N=c1c2ncnc(Nc3ccc(F)cc3)c2ncn1NC(=O)c1ccccc1 | 2.92 (≈ 7.78 µM) | 13.5
5 | CC(=O)Nn1cnc2c(Nc3ccc(F)cc3)ncnc2c1=N | 18.7 (≈ 59.7 µM) | 91.4
6 | N=c1c2ncnc(Nc3ccc(F)cc3)c2ncn1NC(=O)c1ccncc1 | 0.91 (≈ 2.42 µM) | 9.12
7 | N=c1c2ncnc(Nc3ccc(F)cc3)c2ncn1NC(=O)c1ccco1 | 2.17 (≈ 5.94 µM) | 9.77
8 | N=c1c2ncnc(Nc3ccccc3)c2ncn1NC(=O)c1ccncc1 | 4.3 (≈ 12 µM) | 21
9 | N#Cc1ccc(Nc2ncnc3c(=N)n(NC(=O)c4ccccc4)cnc23)cc1 | 2.47 (≈ 6.46 µM) | 36.1
10 | N=c1c2ncnc(Nc3ccccc3)c2ncn1NC(=O)c1ccco1 | 3.16 (≈ 9.1 µM) | 14
11 | COc1ccc(Nc2ncnc3c(=N)n(NC(=O)c4ccncc4)cnc23)cc1 | 1.59 (≈ 4.09 µM) | 9.49
12 | N#Cc1ccc(Nc2ncnc3c(=N)n(NC(=O)c4ccncc4)cnc23)cc1 | 17.2 (≈ 44.9 µM) | > 240
13 | N=c1c2ncnc(Nc3ccccc3)c2ncn1NC(=O)c1ccccc1 | 3.65 (≈ 10.2 µM) | 17.4
14 | CC(=O)Nn1cnc2c(Nc3ccc(C#N)cc3)ncnc2c1=N | 42.1 (≈ 131 µM) | > 311
15 | COc1ccc(Nc2ncnc3c(=N)n(NC(=O)c4ccccc4)cnc23)cc1 | 4.11 (≈ 10.6 µM) | 23.4

tested on: Vero; assay: Cytotoxicity against african green monkey Vero cells; type: cell-based; details: Chlorocebus sabaeus

Row | Compound | EC50 [µg/mL]
16 | N=c1c2ncnc(Nc3ccc(F)cc3)c2ncn1NC(=O)c1ccccc1 | 3.05 (≈ 8.13 µM)
17 | N=c1c2ncnc(Nc3ccc(F)cc3)c2ncn1NC(=O)c1ccncc1 | 1.53 (≈ 4.07 µM)
18 | N=c1c2ncnc(Nc3ccccc3)c2ncn1NC(=O)c1ccncc1 | 4.37 (≈ 12.2 µM)
19 | COc1ccc(Nc2ncnc3c(=N)n(NC(=O)c4ccncc4)cnc23)cc1 | 1.15 (≈ 2.96 µM)
20 | N=c1c2ncnc(Nc3ccccc3)c2ncn1NC(=O)c1ccccc1 | 2.35 (≈ 6.58 µM)
21 | COc1ccc(Nc2ncnc3c(=N)n(NC(=O)c4ccccc4)cnc23)cc1 | 2.12 (≈ 5.47 µM)

tested on: not listed separately; assay: Selectivity index, EC50 for against african green monkey Vero cells to IC50 for Mycobacterium tuberculosis H37Rv; type: functional; details: not given

Row | Compound | Ratio
22 | N=c1c2ncnc(Nc3ccc(F)cc3)c2ncn1NC(=O)c1ccccc1 | 0.6
23 | N=c1c2ncnc(Nc3ccc(F)cc3)c2ncn1NC(=O)c1ccncc1 | 0.43
24 | N=c1c2ncnc(Nc3ccccc3)c2ncn1NC(=O)c1ccncc1 | 0.57
25 | COc1ccc(Nc2ncnc3c(=N)n(NC(=O)c4ccncc4)cnc23)cc1 | 0.27
26 | N=c1c2ncnc(Nc3ccccc3)c2ncn1NC(=O)c1ccccc1 | 0.38
27 | COc1ccc(Nc2ncnc3c(=N)n(NC(=O)c4ccccc4)cnc23)cc1 | 0.23
